Laboratory results reported in US20090169630A1, “Methods and Compositions for Controlled and Sustained Production and Delivery of Peroxides and/or Oxygen for Biological and Industrial Applications” (priority 2006, published 2009).

Assays:
[1] = Permeation (diffusion) cell: hydrogen peroxide release from UHP/PFC slurry across a flat PLGA membrane; assay type: physicochemical; settings: UHP/PFC slurry below, distilled water above
Excerpt: A diffusion cell was constructed in order to measure the release rate of hydrogen peroxide from UHP and its diffusion across a selectively permeable membrane. UHP was dispersed in a PFC liquid and maintained in the bottom half of the cell. Rather than coat the particles, a flat PLGA membrane was used to separate the UHP from distilled water located in the top half of the cell. The PLGA membrane is permeable to water and hydrogen peroxide, but is a very effective barrier to permeation of the PFC. Thus, during the experiment, water diffused across the PLGA membrane and into the PFC/UHP slurry in the bottom half of the cell. Hydrogen peroxide was generated when the water contacted the UHP. The hydrogen peroxide then diffused through the PLGA membrane into the top half of the diffusion cell.
The amount of hydrogen peroxide in the top half of the cell was monitored colorimetrically by testing samples that were periodically removed from the water-rich phase in the top half of the cell. […]

hypoxemic rabbits = settings: cited from earlier work

| Compound | diffusion through the PLGA membrane [1] | rise in arterial PO2 (hypoxemic rabbits; hypoxemic rabbits, intravenous UHP) | outcome at amounts that would supply the oxygen consumption needs of a rabbit (hypoxemic rabbits; rabbits, high UHP amounts) |
| --- | --- | --- | --- |
| NC(N)=O [urea] | did not diffuse through the membrane |  |  |
| NC(N)=O.OO [UHP, urea hydrogen peroxide] |  | 10 mmHg | died of gas emboli |
